According to patent publication US20230348421A1, “5-HT2A RECEPTOR INHIBITOR OR INVERSE AGONIST, PREPARATION METHOD THEREFOR, AND APPLICATION THEREOF” (GENEORA PHARMA (SHIJIAZHUANG) CO., LTD., priority 2020, published 2023):

Columns and labels:
5-HT2A receptor [1] = target: T1, 5-HT2A receptor (Homo sapiens (Human), UniProt P28223); assay: Test for 5-HT2A antagonistic activity (calcium ion antagonism, FLIPR, CHO-K1/5-HT2A cells); assay type: cell-based; conditions: 100 nM a-methyl-5-HT, Ca2+ signal
Description: • Cell lines: CHO-K1/5-HT2A (Chempartner) • Cell culture medium: DMEM/F12+10% FBS (purchased from GBICO) • Cell culture plate: 384-well Assay Plate (purchased from Corning) • Detection kit: FLIPR® Calcium 4 Assay Kit (purchased from Molecular Devices)
After that, centrifugation was performed to remove the culture medium in the cell culture plate. Dye was added, and the cells were incubated in a 37° C., 5% CO2 incubator for another 1 h. The cell culture plate was placed on the FLIPR. A compound to be tested was added, and the Ca^2+ signal was detected, wherein the compound to be tested was subjected to 3-fold gradient dilution with PBS to obtain 10 concentrations, with the highest concentration of 10 uM, and double replicate wells were set up. […] In order to determine the test stability, risperidone was used as a positive control. The data were processed with GraphPad Prism 7.0 to obtain a cell inhibition rate curve, and the IC50 was calculated.
Inhibition rate (%)=100%−[(signal value of the compound to be tested−signal value of the test solution)/(the maximum signal value−the signal value of the test solution)]×100%

[2] = In-vitro stability in dog liver microsomes; assay type: in vitro ADME; conditions: for Remaining amount 60 min later: Dog liver microsomes 0.5 mg/mL, 1 μM, NADPH 1 mM
Description: (§1) • 1) formulation of test sample working solution: the test sample was diluted to 100 μM with methanol; • 2) formulation of liver microsome working solution: liver microsomes were diluted to 0.56 mg/ml with a 100 mM phosphate buffer; • 3) formulation of reduced nicotinamide adenine dinucleotide phosphate (NADPH) working solution: an appropriate amount of NADPH was weighted and diluted to 20 mM with a phosphate buffer, and then a 60 mM MgCl2 solution with the equal volume was added; • 4) formulation of stop solution: tolbutamide was diluted to 20 ng/mL with acetonitrile to serve as a stop solution containing an internal standard.
(§2) The remaining percentage of the test sample was tested 60 min later.

hERG potassium channels = hERG potassium channels (Homo sapiens (Human), UniProt Q12809); assay: hERG inhibitory activity, whole-cell patch clamp in CHO-hERG cells; conditions: read-out: hERG inhibitory activity IC50; CHO-hERG cells, whole-cell patch clamp, tail current at -50 mV
Description: • Name: Dimethyl sulfoxide (DMSO)
• Species & strains: CHO-hERG cell lines (Chinese hamster ovary cells stably expressing hERG channels) • Culture medium: 90% F12, 10% fetal bovine serum, 100 μg/mL G418 and 100 μg/mL hygromycin B • Culture conditions: 5% CO2, 37° C. incubator • Freezing conditions: Liquid nitrogen
Digestion was performed at room temperature for 3-5 min. The digestion solution was pipetted, and the cells were resuspended in extracellular fluid and transferred to an experimental dish for electrophysiological recording for later use.
On the day of the test, the compound was diluted with DMSO to an intermediate concentration. 10 μL of compound with the intermediate concentration was taken, transferred to 4990 μL of extracellular fluid, and subjected to 500-fold dilution to obtain a final concentration to be tested.
CHO (Chinese Hamster Ovary) cells stably expressing hERG potassium channels were taken, and hERG potassium channel currents were recorded at room temperature by means of a whole-cell patch-clamp technique. A glass microelectrode was formed by pulling a glass electrode blank (BF150-86-10, Sutter) with a glass microelectrode puller. The tip resistance was about 2-5 MΩ after perfusion of a pippette solution. The glass microelectrode could be connected to a patch clamp amplifier by inserting the glass microelectrode into an amplifier probe. Clamping voltages and data recording were controlled and recorded by a computer with pClamp 10 software, with a sampling frequency of 10 kHz and a filtering frequency of 2 kHz. After the whole-cell recording was obtained, the cells were clamped at −80 mV, and the step voltage evoking hERG potassium current (I hERG) was changed from −80 mV to +20 mV by giving a 2 s depolarization voltage and then repolarized to −50 mV for 1 s, and returned to −80 mV. Such voltage stimulation was given every 10 s, and the administration process was started after it was determined that the hERG potassium currents were stable (1 min). The compound at each test concentration was given at least 1 min, and at least 2 cells (n≥2) were tested for each concentration.
Data analysis was performed by means of pClamp 10 and GraphPad Prism 5.0 software.
The formula for calculating the degree of inhibition of different compound concentrations on hERG potassium currents (the hERG tail current peak value evoked at −50 mV) was:
Y=Bottom+(Top−Bottom)/(1+10^((LogIC50−X)*HillSlope))
wherein X is a Log value of a test concentration of a test sample, Y is the inhibition percentage at a corresponding concentration, and Bottom and Top are the minimum inhibition percentage and the maximum inhibition percentage, respectively.

5-HT2A receptor [3] = target: T1, 5-HT2A receptor; assay: Screening for 5-HT2A inverse agonistic activity (NIH3T3-5-HT2A R cells, Bright-Glo luciferase, 120 h); assay type: cell-based; conditions: NIH3T3-5HT2AR cells, cell inhibition rate
Description: • Cell lines: Adherent cells NIH3T3-5-HT2A R • Cell culture medium: DMEM+10% FBS (purchased from GBICO) • Cell culture plate: White-wall clear-bottom 96-well plate (purchased from Perkin Elmer) • Detection kit: Bright-Glo™ Luciferase (purchased from Promega) • Detection instrument: BioTek multifunctional microplate reader
NIH3T3-5HT2AR cells in the logarithmic growth phase were seeded into a white-wall clear-bottom 96-well plate at a density of 1000 cells per well, and cultured overnight in a 37° C., 5% CO2 incubator. […] On the sixth day, a Bright-Glo™ Luciferase reagent with a volume equal to that of cell sap was added to the cells, and the cells were incubated at room temperature in the dark for 20 min. […] The data was processed with GraphPad Prism 7.0 to obtain a cell inhibition rate curve, and the IC50 was calculated.
Cell inhibition rate (%)=[100−(Lum test drug−Lum culture solution)/(Lum cell control−Lum culture solution)×100]%

[4] = In-vitro stability in human liver microsomes; assay type: in vitro ADME; conditions: for Remaining amount 60 min later: Human liver microsomes 0.5 mg/mL, 1 μM, NADPH 1 mM
Description: as §1, §2

[5] = In-vivo pharmacokinetic test in rats after intragastric administration; conditions: SD rats; for AUC(0-t) / Cmax / MRT last / Tmax / half-life: rat, po, 46.7 umol/kg, 20% Solutol, plasma
Description: Blood was collected before administration and 0.25 h, 0.5 h, 1 h, 2 h, 3 h, 4 h, 6 h, 8 h, 12 h and 24 h after administration, respectively and placed in a heparinized EP tube, and the plasma was centrifugally separated. After the plasma was pre-treated, the concentrations of compounds in the plasma were determined by LC-MS/MS, and the pharmacokinetic parameters were calculated.

T1 sequence (P28223 whole entry): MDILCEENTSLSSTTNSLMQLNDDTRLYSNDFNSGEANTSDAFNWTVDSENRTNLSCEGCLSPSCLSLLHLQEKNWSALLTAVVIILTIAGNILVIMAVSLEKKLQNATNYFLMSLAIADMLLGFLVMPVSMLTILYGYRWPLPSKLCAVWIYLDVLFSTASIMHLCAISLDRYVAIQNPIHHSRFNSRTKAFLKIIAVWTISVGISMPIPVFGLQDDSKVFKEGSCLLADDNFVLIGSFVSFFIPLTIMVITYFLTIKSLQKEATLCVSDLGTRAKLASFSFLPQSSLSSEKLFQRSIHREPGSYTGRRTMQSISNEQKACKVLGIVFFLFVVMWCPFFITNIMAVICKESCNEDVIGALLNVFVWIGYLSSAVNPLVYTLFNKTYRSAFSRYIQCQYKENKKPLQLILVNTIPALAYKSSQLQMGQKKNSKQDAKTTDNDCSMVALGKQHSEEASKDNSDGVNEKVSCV
Sequence of hERG potassium channels (Q12809 whole entry): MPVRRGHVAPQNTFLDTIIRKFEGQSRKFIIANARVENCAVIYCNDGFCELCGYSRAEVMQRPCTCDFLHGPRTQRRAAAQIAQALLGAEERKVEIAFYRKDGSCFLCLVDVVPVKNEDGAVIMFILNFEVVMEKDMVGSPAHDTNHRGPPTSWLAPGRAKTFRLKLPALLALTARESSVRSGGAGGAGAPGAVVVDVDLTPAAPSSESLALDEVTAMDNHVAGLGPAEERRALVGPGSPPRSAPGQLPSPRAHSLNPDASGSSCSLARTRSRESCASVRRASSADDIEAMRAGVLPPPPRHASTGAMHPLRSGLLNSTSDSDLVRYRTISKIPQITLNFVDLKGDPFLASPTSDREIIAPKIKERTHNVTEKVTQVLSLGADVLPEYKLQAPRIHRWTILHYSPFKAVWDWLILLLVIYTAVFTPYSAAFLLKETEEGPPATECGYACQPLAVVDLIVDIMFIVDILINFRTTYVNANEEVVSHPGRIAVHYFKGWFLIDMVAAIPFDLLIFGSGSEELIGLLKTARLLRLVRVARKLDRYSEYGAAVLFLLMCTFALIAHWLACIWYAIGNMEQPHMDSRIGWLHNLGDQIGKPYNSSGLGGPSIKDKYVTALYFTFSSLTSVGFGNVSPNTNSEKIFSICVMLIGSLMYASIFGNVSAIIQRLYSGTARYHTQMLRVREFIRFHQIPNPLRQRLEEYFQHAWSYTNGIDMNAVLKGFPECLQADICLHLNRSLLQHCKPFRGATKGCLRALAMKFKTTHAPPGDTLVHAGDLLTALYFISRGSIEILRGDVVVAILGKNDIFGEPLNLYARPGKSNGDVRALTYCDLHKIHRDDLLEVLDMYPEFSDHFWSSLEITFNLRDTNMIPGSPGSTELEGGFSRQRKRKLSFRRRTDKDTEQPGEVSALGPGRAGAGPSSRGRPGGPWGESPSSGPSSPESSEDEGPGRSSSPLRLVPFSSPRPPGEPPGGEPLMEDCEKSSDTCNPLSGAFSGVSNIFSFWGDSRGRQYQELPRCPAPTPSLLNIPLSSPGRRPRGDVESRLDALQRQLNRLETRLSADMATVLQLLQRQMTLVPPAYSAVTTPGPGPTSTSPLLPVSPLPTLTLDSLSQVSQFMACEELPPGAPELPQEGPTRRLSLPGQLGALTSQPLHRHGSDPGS

Row | Compound | IC50 (5-HT2A receptor [1]) | Remaining amount 60 min later [2] | Stability compared with pimavanserin ([2]; dog liver microsomes in vitro) | IC50 (hERG potassium channels) | IC50 (5-HT2A receptor [3]) | Remaining amount 60 min later [4] | Stability compared with pimavanserin ([4]; human liver microsomes in vitro) | AUClast relative to pimavanserin ([5]; 46.7 μmol/kg) | Cmax relative to pimavanserin ([5]; 46.7 μmol/kg) | T1/2 compared with pimavanserin ([5]; 46.7 μmol/kg) | AUC(0-t) [5] | Cmax [5] | MRT last [5] | Tmax [5] | half-life [5]
1 | CN1CCC(N(Cc2ccc(F)cn2)C(=O)NCc2ccc(OCC(F)(F)F)cc2)CC1 [Compound 59] | 0.54 nM | 76.37% | obviously superior stability to that of pimavanserin | 810 nM | 2.04 nM | 89.19% | obviously superior stability to that of pimavanserin | 4 times | 2 times | higher than that of pimavanserin | 17 ± 2.97 µM·h | 1140 ± 365 nM | 8.66 ± 0.89 h | 5.88 ± 5.14 h | 5.51 ± 1.33 h
2 | CC(C)COc1ccc(CNC(=O)N(Cc2ccc(F)cc2)C2CCN(C)CC2)cc1 [Pimavanserin, reference compound] | – | 29.72% | – | – | – | 77.44% | – | – | – | – | 4.29 ± 1.66 µM·h | 536 ± 260 nM | 5.61 ± 0.34 h | 2.75 ± 1.26 h | 2.38 ± 0.8 h
